Assay results taken from patent US20050272726A1, “Novel medicaments for the treatment of respiratory diseases” (Boehringer Ingelheim International GmbH, priority 2004, published 2005).
Counter-ions that a name gives are not always drawn.

Compound `CC(C)(Cc1ccc(F)cc1F)NCC(O)c1cc(O)cc2c1OCC(=O)N2` (centres unmarked) (as salt: hydrochloride) has a melting point of 279 to 280 °C. For `Cc1cc(CC(C)(C)NCC(O)c2cc(O)cc3c2OCC(=O)N3)ccc1F` (centres unmarked) (as salt: hydrochloride) [Example 8, 8-{2-[2-(4-Fluoro-3-methyl-phenyl)-1,1-dimethyl-ethylamino]-1-hydroxy-ethyl}-6-hydroxy-4H-benzo[1,4]oxazin-3-one], the melting point was 278 to 280 °C. In the case of `Cc1cc(F)ccc1CC(C)(C)NCC(O)c1cc(O)cc2c1OCC(=O)N2` (centres unmarked) (as salt: hydrochloride) [Example 9, 8-{2-[2-(4-fluoro-2-methyl-phenyl)-1,1-dimethyl-ethylamino]-1-hydroxy-ethyl}-6-hydroxy-4H-benzo[1,4]oxazin-3-one], the melting point is reported as 278 to 280 °C. `Cc1cc(C)cc(CC(C)(C)NCC(O)c2cc(O)cc3c2OCC(=O)N3)c1` (centres unmarked) (as salt: hydrochloride) [Example 13, 8-{2-[2-(3,5-dimethyl-phenyl)-1,1-dimethyl-ethylamino]-1-hydroxy-ethyl}-6-hydroxy-4H-benzo[1,4]oxazin-3-one] gave a melting point of 235 to 238 °C. Compound `CC(C)(Cc1ccc(OCCCC(=O)O)cc1)NCC(O)c1cc(O)cc2c1OCC(=O)N2` (centres unmarked) [Example 14, 4-(4-{2-[2-hydroxy-2-(6-hydroxy-3-oxo-3,4-dihydro-2H-benzo[1,4]oxazin-8-yl)-ethylamino]-2-methyl-propyl}-phenoxy)-butyric acid] has a melting point of 201 to 204 °C.
